These results are taken from patent US10106538B2, “Inhibitors of protein kinases” (PRINCETON DRUG DISCOVERY INC, priority 2015, dated 2018).

Holding throughout (assay): Off-chip Mobility Shift Assay (MSA) kinase inhibition
Holding throughout (assay type): biochemical

In assay [1] the target is T1, MAP2K4 (Homo sapiens, UniProt P45985).
T1 construct: purchased Carna Biosciences
The following applies: inhibitor concentration 1 μM. Here is the method: (§1) Off-chip Mobility Shift Assay (MSA) by Cama Biosciences, Inc (Natick, Mass.) a used for measuring the kinase activity and inhibition. • 1) The 5 μL of x4 compound solution, 5 μL of x4 Substrate/ATP/Metal solution, and 10 μL of x2 kinase solution were prepared with assay buffer (20 mM HEPES, 0.01% Triton X100, 2 mM DTT, pH 7.5) and mixed and incubated in a well of polypropylene 384 well microplate for 1 or 5 hour(s)* at room temperature. (*; depending on kinase) • 2) 70 μL of Termination Buffer (QuickScout Screening Assist A; Cama Biosciences) was added to the welt • 3) The reaction mixture was applied to LabChip system (Perkin Elmer), and the product and substrate peptide peaks were separated and quantitated. • 4) The kinase reaction was evaluated by the product ratio calculated from peak heights of product (P) and substrate (S) peptides (P/(P+S)). • 5) The reaction conditions were followed according to assay protocols of Ca n Biosciences, Inc (BMA 3F, 1-5-5 Minatojima-Minamimachi, Chuo-ku, Kobe 650-0047, Japan; www.carnabio.com). • 6 Data analysis: The readout value of reaction control (complete reaction mixture) was set as a 0% inhibition, and the readout value of background (Enzyme (−)) was set as a 100% inhibition, then the percent inhibition of each test solution was calculated, […]

The target of assay [2] is T2, MST2 (Homo sapiens, UniProt Q13188).
T2 construct: purchased Carna Biosciences
T2 sequence (Q13188 1-491): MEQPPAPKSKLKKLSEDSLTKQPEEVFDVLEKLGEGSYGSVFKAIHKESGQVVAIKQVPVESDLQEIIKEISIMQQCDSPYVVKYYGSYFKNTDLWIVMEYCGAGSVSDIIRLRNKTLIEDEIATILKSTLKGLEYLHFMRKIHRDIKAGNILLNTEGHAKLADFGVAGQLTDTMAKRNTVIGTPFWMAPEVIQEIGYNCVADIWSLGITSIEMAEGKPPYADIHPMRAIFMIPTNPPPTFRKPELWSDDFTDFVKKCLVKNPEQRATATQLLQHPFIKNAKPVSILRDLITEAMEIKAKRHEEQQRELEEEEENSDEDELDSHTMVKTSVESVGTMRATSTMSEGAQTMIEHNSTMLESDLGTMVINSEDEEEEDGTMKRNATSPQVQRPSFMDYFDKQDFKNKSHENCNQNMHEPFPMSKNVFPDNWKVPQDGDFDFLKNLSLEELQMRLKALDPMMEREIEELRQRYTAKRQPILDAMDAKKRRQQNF
The method, then: as §1

For assay [3], the target named is T3, MST4 (Homo sapiens, UniProt Q9P289).
T3 construct: purchased Carna Biosciences
T3 sequence (Q9P289 whole entry): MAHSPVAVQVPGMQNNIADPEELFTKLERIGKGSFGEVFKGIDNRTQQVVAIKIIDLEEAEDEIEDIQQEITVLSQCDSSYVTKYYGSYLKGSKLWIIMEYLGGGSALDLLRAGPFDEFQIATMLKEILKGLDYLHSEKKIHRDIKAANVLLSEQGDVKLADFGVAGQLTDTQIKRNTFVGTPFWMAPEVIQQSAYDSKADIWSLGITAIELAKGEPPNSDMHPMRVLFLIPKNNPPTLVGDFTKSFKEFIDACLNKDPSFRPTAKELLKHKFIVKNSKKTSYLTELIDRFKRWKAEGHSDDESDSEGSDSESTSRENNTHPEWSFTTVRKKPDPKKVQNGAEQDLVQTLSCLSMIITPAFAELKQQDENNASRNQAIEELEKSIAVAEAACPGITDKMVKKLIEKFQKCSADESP
The settings on record: inhibitor concentration 1 μM. The method, then:
as §1

The target in assay [4] is T4, PDGFRα(D842V) (Homo sapiens, UniProt P16234, D842V).
T4 construct: purchased Carna Biosciences
T4 sequence (P16234 24-1089 D842V): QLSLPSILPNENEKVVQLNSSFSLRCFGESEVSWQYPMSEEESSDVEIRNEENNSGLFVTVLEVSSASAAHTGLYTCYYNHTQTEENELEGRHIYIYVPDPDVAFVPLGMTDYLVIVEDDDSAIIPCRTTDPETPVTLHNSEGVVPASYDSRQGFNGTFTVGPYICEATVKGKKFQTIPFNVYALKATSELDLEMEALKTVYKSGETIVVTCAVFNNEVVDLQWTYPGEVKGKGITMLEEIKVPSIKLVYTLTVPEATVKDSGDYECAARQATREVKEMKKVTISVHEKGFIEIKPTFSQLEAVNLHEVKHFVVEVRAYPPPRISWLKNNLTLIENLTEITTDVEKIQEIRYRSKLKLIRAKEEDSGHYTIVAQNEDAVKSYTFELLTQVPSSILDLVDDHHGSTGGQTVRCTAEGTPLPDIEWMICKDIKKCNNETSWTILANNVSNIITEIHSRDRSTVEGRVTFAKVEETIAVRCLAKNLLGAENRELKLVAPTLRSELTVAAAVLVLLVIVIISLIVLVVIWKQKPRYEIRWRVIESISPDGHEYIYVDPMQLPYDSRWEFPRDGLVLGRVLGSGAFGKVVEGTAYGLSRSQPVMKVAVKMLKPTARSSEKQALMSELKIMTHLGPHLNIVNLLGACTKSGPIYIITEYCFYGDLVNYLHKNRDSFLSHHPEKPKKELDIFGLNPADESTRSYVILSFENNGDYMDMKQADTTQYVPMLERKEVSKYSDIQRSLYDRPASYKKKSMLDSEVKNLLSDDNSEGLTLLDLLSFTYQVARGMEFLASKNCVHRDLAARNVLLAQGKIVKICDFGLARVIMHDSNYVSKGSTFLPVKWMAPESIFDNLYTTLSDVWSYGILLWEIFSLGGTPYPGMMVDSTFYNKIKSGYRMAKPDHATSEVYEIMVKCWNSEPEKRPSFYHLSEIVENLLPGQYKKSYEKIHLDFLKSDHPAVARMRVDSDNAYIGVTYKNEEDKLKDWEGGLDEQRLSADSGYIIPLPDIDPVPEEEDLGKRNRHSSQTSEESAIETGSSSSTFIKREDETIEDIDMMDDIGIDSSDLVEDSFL
The method, then: as §1

Assay [5] has as its target T5, PDGFRα(T674I) (Homo sapiens, UniProt P16234, T674I).
T5 construct: purchased Carna Biosciences
Here is the method:
as §1

For assay [6], the target named is T6, PDGFRα(V561D) (Homo sapiens, UniProt P16234, V561D).
T6 construct: purchased Carna Biosciences
T6 sequence (P16234 24-1089 V561D): as the sequence (P16234 24-1089 D842V) above, with V538D, V819D counted along it
The method, then:
as §1

Assay [7] addresses T7, JAK1 (Homo sapiens, UniProt P23458).
T7 construct: purchased Carna Biosciences
The following applies: for inhibition at 0.1 µM: inhibitor concentration 0.1 μM. The method, boiled down:
(§2)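 Steps: mix compound with substrate/ATP/metal solution and kinase in assay buffer (20 mM HEPES, 0.01% Triton X100, 2 mM DTT, pH 7.5); incubate at room temperature for 1 or 5 hour(s); measure inhibition by mobility shift off-chip.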

The target in assay [8] is T8, LCK (Homo sapiens, UniProt P06239).
T8 construct: purchased Carna Biosciences
T8 sequence (P06239 whole entry): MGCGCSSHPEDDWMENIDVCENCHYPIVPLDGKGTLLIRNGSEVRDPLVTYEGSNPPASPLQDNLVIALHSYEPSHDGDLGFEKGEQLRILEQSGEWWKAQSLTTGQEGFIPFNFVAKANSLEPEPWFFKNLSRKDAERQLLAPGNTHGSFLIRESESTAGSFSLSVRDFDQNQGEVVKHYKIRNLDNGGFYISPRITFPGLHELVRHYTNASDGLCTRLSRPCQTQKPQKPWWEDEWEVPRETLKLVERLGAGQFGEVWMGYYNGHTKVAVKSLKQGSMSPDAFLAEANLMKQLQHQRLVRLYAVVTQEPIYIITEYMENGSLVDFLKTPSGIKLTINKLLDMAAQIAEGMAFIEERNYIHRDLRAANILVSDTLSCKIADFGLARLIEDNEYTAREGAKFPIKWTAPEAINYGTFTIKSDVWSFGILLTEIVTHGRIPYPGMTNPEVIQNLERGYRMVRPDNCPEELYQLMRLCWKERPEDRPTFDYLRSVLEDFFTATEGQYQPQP
The settings on record: for inhibition at 0.1 µM: inhibitor concentration 0.1 μM. Summed up:
as §2

For assay [9], the target named is T9, SRC (Homo sapiens, UniProt P12931).
T9 construct: purchased Carna Biosciences
T9 sequence (P12931 whole entry): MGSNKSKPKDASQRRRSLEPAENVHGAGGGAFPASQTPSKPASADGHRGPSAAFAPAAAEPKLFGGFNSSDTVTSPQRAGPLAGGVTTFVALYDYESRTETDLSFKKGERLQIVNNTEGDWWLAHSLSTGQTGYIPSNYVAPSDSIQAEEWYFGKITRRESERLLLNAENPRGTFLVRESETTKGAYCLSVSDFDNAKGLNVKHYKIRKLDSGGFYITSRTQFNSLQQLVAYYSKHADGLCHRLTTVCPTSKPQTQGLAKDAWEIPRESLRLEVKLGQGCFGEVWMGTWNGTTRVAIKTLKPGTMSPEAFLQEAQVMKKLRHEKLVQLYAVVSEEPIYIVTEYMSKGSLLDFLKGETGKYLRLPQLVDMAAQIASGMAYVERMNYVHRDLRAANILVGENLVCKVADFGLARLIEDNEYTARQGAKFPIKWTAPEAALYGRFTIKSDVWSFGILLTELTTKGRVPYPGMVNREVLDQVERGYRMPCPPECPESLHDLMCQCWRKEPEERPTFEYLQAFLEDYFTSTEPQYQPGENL
The settings on record: for inhibition at 0.1 µM: inhibitor concentration 0.1 μM. Summed up: as §2

Assay [10] deals with T10, AXL (Homo sapiens, UniProt P30530).
T10 construct: purchased Carna Biosciences
T10 sequence (P30530 26-894): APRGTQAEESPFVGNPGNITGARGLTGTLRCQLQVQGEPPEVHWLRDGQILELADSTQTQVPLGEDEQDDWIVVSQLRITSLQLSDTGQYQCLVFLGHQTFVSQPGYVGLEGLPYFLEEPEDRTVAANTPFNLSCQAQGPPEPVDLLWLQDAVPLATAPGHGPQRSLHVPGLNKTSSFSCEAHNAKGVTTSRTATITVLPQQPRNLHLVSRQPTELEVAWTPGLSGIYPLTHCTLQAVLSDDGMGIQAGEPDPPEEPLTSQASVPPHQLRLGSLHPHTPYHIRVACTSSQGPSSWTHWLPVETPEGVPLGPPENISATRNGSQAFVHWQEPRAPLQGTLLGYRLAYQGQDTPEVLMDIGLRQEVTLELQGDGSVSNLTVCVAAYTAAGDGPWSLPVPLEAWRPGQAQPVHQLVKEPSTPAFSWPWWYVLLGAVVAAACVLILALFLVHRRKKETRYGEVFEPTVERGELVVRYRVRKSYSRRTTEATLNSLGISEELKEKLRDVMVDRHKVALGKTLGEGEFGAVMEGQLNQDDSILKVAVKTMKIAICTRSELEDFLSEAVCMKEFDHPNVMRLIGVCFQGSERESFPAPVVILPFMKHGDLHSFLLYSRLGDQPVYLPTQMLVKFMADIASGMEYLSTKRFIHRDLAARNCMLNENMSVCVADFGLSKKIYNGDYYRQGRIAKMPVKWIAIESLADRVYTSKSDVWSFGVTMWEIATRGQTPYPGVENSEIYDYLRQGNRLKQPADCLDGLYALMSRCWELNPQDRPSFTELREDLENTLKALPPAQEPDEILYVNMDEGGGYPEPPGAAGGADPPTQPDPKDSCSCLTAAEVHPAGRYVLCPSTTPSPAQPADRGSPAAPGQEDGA
The following applies: inhibitor concentration 0.1 μM. The method, boiled down: as §2

Assay [11] deals with T11, FAK (Homo sapiens, UniProt Q05397).
T11 construct: purchased Carna Biosciences, Inc
T11 sequence (Q05397 whole entry): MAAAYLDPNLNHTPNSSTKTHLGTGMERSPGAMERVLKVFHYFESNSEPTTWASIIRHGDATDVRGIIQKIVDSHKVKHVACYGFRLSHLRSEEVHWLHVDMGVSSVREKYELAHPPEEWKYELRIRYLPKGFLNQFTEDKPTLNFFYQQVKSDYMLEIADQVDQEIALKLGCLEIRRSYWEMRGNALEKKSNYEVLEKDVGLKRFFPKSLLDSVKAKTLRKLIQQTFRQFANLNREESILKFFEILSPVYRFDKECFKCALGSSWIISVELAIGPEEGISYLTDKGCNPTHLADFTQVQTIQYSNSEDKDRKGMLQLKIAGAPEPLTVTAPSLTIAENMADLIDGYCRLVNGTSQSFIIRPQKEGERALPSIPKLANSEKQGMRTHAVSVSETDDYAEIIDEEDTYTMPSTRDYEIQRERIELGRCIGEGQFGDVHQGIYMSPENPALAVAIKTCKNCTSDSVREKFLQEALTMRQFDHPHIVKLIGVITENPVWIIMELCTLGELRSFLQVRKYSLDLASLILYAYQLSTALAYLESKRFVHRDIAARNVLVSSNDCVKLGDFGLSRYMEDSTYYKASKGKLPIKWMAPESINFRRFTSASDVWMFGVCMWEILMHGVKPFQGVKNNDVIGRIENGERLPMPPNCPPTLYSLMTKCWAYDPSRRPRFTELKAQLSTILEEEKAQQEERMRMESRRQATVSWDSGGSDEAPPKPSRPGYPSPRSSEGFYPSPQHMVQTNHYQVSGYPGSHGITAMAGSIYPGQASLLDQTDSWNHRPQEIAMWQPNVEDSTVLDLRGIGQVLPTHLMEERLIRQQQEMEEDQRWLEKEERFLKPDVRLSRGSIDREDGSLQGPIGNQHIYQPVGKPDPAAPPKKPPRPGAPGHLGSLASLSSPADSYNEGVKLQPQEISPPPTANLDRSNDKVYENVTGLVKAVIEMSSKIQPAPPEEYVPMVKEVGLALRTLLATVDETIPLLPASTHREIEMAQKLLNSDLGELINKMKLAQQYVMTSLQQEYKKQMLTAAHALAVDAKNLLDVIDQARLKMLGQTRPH
The following applies: inhibitor concentration 0.1 μM. Summed up:
as §2

The target in assay [12] is T12, JNK1 (Homo sapiens, UniProt P45983).
T12 construct: purchased Carna Biosciences
T12 sequence (P45983 whole entry): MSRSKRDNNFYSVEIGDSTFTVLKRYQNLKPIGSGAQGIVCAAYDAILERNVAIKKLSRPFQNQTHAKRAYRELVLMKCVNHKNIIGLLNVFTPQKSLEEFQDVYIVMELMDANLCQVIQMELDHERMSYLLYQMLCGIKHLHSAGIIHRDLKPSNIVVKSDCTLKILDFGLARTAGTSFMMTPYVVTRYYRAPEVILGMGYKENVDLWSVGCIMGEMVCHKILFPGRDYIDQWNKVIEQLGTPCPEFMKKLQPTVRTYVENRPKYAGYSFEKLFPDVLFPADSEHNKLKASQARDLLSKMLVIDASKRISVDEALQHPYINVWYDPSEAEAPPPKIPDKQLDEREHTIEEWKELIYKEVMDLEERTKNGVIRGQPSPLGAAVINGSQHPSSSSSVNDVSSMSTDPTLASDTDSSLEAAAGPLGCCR
The settings on record: inhibitor concentration 0.1 μM. Summed up: as §2

Assay [13] addresses T13, MAPKAPK2 (Homo sapiens, UniProt P49137).
T13 construct: purchased Carna Biosciences
The settings on record: inhibitor concentration 0.1 μM. Summed up:
as §2

[14] abbreviates: inhibitor concentration 0.01 μM.
The mark [15] stands for this setting: inhibitor concentration 0.01 μM, 0.01 µM.

A value given as a limit tells only on which side of the number the result lay.

T13 sequence (P49137 whole entry): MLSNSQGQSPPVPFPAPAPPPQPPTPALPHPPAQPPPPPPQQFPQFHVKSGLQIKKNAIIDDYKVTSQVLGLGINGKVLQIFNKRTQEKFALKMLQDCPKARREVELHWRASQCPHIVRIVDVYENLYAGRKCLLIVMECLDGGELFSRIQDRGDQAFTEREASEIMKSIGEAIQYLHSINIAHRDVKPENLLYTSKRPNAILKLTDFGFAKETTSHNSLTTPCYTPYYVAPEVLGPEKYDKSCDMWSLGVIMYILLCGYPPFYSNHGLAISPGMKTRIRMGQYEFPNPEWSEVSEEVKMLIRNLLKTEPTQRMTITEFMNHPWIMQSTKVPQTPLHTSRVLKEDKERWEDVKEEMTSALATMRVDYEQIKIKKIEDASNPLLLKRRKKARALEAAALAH
T5 sequence (P16234 24-1089 T674I): as the sequence (P16234 24-1089 D842V) above, with T651I, V819D counted along it
T1 sequence (P45985 whole entry): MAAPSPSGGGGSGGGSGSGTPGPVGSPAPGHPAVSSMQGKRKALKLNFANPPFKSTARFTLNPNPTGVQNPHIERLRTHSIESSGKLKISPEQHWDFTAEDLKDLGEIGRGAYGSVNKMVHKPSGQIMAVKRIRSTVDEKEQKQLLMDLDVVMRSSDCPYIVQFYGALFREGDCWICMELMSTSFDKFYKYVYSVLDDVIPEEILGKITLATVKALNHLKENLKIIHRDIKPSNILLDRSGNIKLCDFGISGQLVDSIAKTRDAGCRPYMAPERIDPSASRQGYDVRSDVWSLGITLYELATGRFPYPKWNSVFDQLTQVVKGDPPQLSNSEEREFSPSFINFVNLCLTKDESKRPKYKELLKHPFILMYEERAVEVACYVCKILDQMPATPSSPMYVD

For the molecule `O=C(c1c(F)ccc(NS(=O)(=O)CCCO)c1F)c1c[nH]c2ncc(-c3ccc(Cl)cc3)cc12` [200-17, N-[3-[5-(4-chlorophenyl)-1H-pyrrolo[2,3-b]pyridine-3-carbonyl]-2,4-difluorophenyl]-3-hydroxypropane-1-sulfonamide], the inhibition – broadly, the drop in the measured response relative to a control, in per cent – at 1 µM in assay [1] is below 50%; in assay [2] (inhibitor concentration 1 μM), above 50%; in assay [3] it was below 50%; in assay [4] (inhibitor concentration 1 μM), above 50%; in [5] (inhibitor concentration 1 μM), below 50%; in assay [6] (inhibitor concentration 1 μM), above 50%. Besides, the inhibition at 1 µM in [7] (inhibitor concentration 1 μM), in [8] (inhibitor concentration 1 μM) and in [9] (inhibitor concentration 1 μM) was above 50% throughout. Moreover, the inhibition at 0.01 µM in [2] (setting [14]) is below 30%; in assay [6] (setting [14]) it was below 30%; in assay [7] (setting [14]), above 30%; in [8] (setting [14]) it was above 30%; in [9] (setting [14]), below 30%. Also, the inhibition at 0.1 µM in assay [2] (inhibitor concentration 0.1 μM) was below 50%; in assay [6] (inhibitor concentration 0.1 μM), above 50%; in assay [7], above 50%; in [8], above 50%; in [9], above 50%.

With `CC(O)CS(=O)(=O)Nc1ccc(F)c(C(=O)c2c[nH]c3ncc(-c4ccc(Cl)cc4)cc23)c1F` (stereo not shown) [200-115], the inhibition at 0.1 µM is below 30% in assay [10]; below 30% in assay [11]; below 30% in [7]; below 30% in assay [12]; above 30% in [8]; below 30% in assay [13]. Moreover, in [9], the inhibition at 0.1 µM was below 30%.

Take `C/C=C/S(=O)(=O)Nc1ccc(F)c(C(=O)c2c[nH]c3ncc(-c4ccc(Cl)cc4)cc23)c1F` [200-93b]: in assay [4] (setting [15]), the “PDGFRα(D842V) inhibition” value is below 20%. Also, the “PDGFRα(T674I) inhibition” value in assay [5] (setting [15]) is below 20%. Also, the “PDGFRα(V561D) inhibition” value in [6] (setting [15]) is recorded as below 20%. Further, the JAK1 inhibition in assay [7] (setting [15]) was below 20%. In addition, in assay [8] (setting [15]), the LCK inhibition is above 20%. Further, the SRC inhibition in assay [9] (setting [15]) is below 20%.

For `O=C(c1c(F)ccc(NS(=O)(=O)CC(O)CO)c1F)c1c[nH]c2ncc(-c3ccc(Cl)cc3)cc12` (stereo not drawn) [200-73, N-[3-[5-(4-chlorophenyl)-lH-pyrrolo [2,3-b]pyridine-3-carbonyl]-2,4-difluorophenyl]-2,3-dihydroxypropane-l-sulfonamide], the inhibition at 0.1 µM is below 30% in assay [10]; below 30% in [11]; above 30% in assay [7]; below 30% in [12]; below 30% in assay [8]; below 30% in assay [13]. Further, the inhibition at 0.1 µM in assay [9] is below 30%.

With `CC(=O)CS(=O)(=O)Nc1ccc(F)c(C(=O)c2c[nH]c3ncc(-c4ccc(Cl)cc4)cc23)c1F` [200-117], the inhibition at 0.1 µM in [10] is below 30%; in assay [11], below 30%; in [7], below 30%; in assay [12], below 30%; in [8] it was above 30%; in [13], below 30%. In addition, in assay [9], the inhibition at 0.1 µM is below 30%.
